Results as given in publication PMC8381505, “Phase 1 clinical trial of the PI3Kδ inhibitor YY-20394 in patients with B-cell hematological malignancies” (Journal of Hematology & Oncology, 2021).

Columns and labels:
[1] = Procedure: (§1) During dose escalation, patients received YY-20394 tablets q.d. at dosages of 20, 40, 80, 140 or 200 mg. The maximum tolerated dose (MTD), dose escalation phase and dose-limiting toxicity (DLT) as well as hematological toxicity classifications are described in Additional file 4. The primary endpoints were safety, tolerability and the MTD of YY-20394. Secondary endpoints were PK parameters and efficacy. Response criteria followed the revised International Research Working Group (IRWG) for non-Hodgkin lymphomas (NHL), and the International Working Group on Chronic Lymphocytic Leukemia (IWCLL) criteria for CLL [8]. Efficacy determinations were the objective response rate (ORR), disease control rate (DCR), complete remission (CR), partial remission (PR), stable disease (SD), progressive disease (PD) and progression-free survival (PFS).
The safety evaluation of YY-20394 included adverse events (AEs) and serious AEs (SAEs) by standard categorizations.
The maximum tolerated dose (MTD) was established during the dose escalation phase, based on dose-limiting toxicity (DLT) developments, which were defined as: death; grade IV hematological toxicity with a duration of 1 week; or non-hematological toxicities ≥ grade III. […] At the end of the tolerance test, the dose extension test was conducted, in which YY-20394 was administered for a period of 28 days per cycle until the disease progressed or toxicity developed beyond tolerance. Patients visited the clinic once a week during treatment cycle 1 and every 2 weeks during cycle 2 and once a month thereafter.

[2] = system: relapsed or refractory B-cell malignancies; experiment: Phase 1 dose escalation: efficacy (ORR, DCR, PFS) in patients; type: in vivo, human
Procedure: Patients ≥ 18 years old with refractory or relapsed B-cell malignancies were enrolled from November, 2017 to completion of the trial in November, 2019. Inclusion and exclusion criteria are listed in Additional file 2 and baseline patient characteristics in Additional file 3: Table S2.
as §1

[3] = drug-related AE, n (%) of 25 evaluable patients
[4] = 10 FL patients, 9/10, 95% CI 71.4, 100.0
[5] = number of patients of 25 evaluable

Structure (SMILES): COc1ncc(-c2nc(N3CCOCC3)nc3c(CN4CCC(C(C)(C)O)CC4)cc(F)cc23)cc1NS(C)(=O)=O [YY-20394, N-[5-[6-fluoro-8-[[4-(1-hydroxy-1-methylethyl)-1-piperidinyl]methyl]-2-(4-morpholinyl)-4-quinazolinyl]-2-methoxy-3-pyridinyl]-methanesulfonamide]
- maximum tolerated dose (MTD) ([1]; 20–200 mg daily): not reached
- Upper respiratory tract infection, number of patients with grade I/II at > 5% incidence [1, 3]: 4 (16.0)
- Upper respiratory tract infection, number of patients with ≥ grade III [1, 3]: 1 (4.0)
- Anemia, number of patients with grade I/II at > 5% incidence ([1]; human, in vivo): 3 (12.0)
- Anemia, number of patients with ≥ grade III ([1]; human, in vivo): 0
- Cough, number of patients with grade I/II at > 5% incidence ([1]; human, in vivo): 2 (8.0)
- Cough, number of patients with ≥ grade III ([1]; human, in vivo): 0
- Diarrhea, number of patients with grade I/II at > 5% incidence ([1]; human, in vivo): 2 (8.0)
- Diarrhea, number of patients with ≥ grade III ([1]; human, in vivo): 0
- Elevated alanine aminotransferase, number of patients with grade I/II at > 5% incidence ([1]; human, in vivo): 3 (12.0)
- Elevated alanine aminotransferase, number of patients with ≥ grade III ([1]; human, in vivo): 0
- Elevated aspartate aminotransferase, number of patients with grade I/II at > 5% incidence ([1]; human, in vivo): 2 (8.0)
- Elevated aspartate aminotransferase, number of patients with ≥ grade III ([1]; human, in vivo): 0
- Elevated bilirubin, number of patients with grade I/II at > 5% incidence ([1]; human, in vivo): 2 (8.0)
- Elevated bilirubin, number of patients with ≥ grade III ([1]; human, in vivo): 0
- Elevated serum alkaline phosphatase, number of patients with grade I/II at > 5% incidence ([1]; human, in vivo): 3 (12.0)
- Elevated serum alkaline phosphatase, number of patients with ≥ grade III ([1]; human, in vivo): 0
- Elevated serum lactate dehydrogenase, number of patients with grade I/II at > 5% incidence ([1]; human, in vivo): 11 (44.0)
- Elevated serum lactate dehydrogenase, number of patients with ≥ grade III ([1]; human, in vivo): 1 (4.0)
- Elevated serum α-hydroxybutyrate dehydrogenase, number of patients with grade I/II at > 5% incidence ([1]; human, in vivo): 6 (24.0)
- Elevated serum α-hydroxybutyrate dehydrogenase, number of patients with ≥ grade III ([1]; human, in vivo): 1 (4.0)
- Elevated γ-glutamyltransferase, number of patients with grade I/II at > 5% incidence ([1]; human, in vivo): 2 (8.0)
- Elevated γ-glutamyltransferase, number of patients with ≥ grade III ([1]; human, in vivo): 0
- Fatigue, number of patients with grade I/II at > 5% incidence ([1]; human, in vivo): 2 (8.0)
- Fatigue, number of patients with ≥ grade III ([1]; human, in vivo): 0
- Fever, number of patients with grade I/II at > 5% incidence ([1]; human, in vivo): 2 (8.0)
- Fever, number of patients with ≥ grade III ([1]; human, in vivo): 0
- Hyperbilirubinemia, number of patients with grade I/II at > 5% incidence ([1]; human, in vivo): 3 (12.0)
- Hyperbilirubinemia, number of patients with ≥ grade III ([1]; human, in vivo): 0
- Hyperuricemia, number of patients with grade I/II at > 5% incidence ([1]; human, in vivo): 5 (20.0)
- Hyperuricemia, number of patients with ≥ grade III ([1]; human, in vivo): 3 (12.0)
- Leukocytosis, number of patients with grade I/II at > 5% incidence ([1]; human, in vivo): 2 (8.0)
- Leukocytosis, number of patients with ≥ grade III ([1]; human, in vivo): 0
- Leukopenia, number of patients with grade I/II at > 5% incidence ([1]; human, in vivo): 11 (44.0)
- Leukopenia, number of patients with ≥ grade III ([1]; human, in vivo): 2 (8.0)
- Lymphocythemia, number of patients with grade I/II at > 5% incidence ([1]; human, in vivo): 3 (12.0)
- Lymphocythemia, number of patients with ≥ grade III ([1]; human, in vivo): 2 (8.0)
- Maculopapule, number of patients with grade I/II at > 5% incidence ([1]; human, in vivo): 2 (8.0)
- Maculopapule, number of patients with ≥ grade III ([1]; human, in vivo): 0
- Neutropenia, number of patients with grade I/II at > 5% incidence ([1]; human, in vivo): 17 (68.0)
- Neutropenia, number of patients with ≥ grade III ([1]; human, in vivo): 11 (44.0)
- Oropharyngeal pain, number of patients with grade I/II at > 5% incidence ([1]; human, in vivo): 2 (8.0)
- Oropharyngeal pain, number of patients with ≥ grade III ([1]; human, in vivo): 0
- Pneumonia, number of patients with grade I/II at > 5% incidence ([1]; human, in vivo): 4 (16.0)
- Pneumonia, number of patients with ≥ grade III ([1]; human, in vivo): 4 (16.0)
- Pneumonitis, number of patients with grade I/II at > 5% incidence ([1]; human, in vivo): 3 (12.0)
- Pneumonitis, number of patients with ≥ grade III ([1]; human, in vivo): 2 (8.0)
- Proteinuria, number of patients with grade I/II at > 5% incidence ([1]; human, in vivo): 4 (16.0)
- Proteinuria, number of patients with ≥ grade III ([1]; human, in vivo): 0
- Thrombocytopenia, number of patients with grade I/II at > 5% incidence ([1]; human, in vivo): 5 (20.0)
- Thrombocytopenia, number of patients with ≥ grade III ([1]; human, in vivo): 1 (4.0)
- Weight gain, number of patients with grade I/II at > 5% incidence ([1]; human, in vivo): 2 (8.0)
- Weight gain, number of patients with ≥ grade III ([1]; human, in vivo): 1 (4.0)
- Weight loss, number of patients with grade I/II at > 5% incidence ([1]; human, in vivo): 3 (12.0)
- Weight loss, number of patients with ≥ grade III ([1]; human, in vivo): 0
- dose-limiting toxicity (DLT) ([1]; human, in vivo): no patients experienced DLT
- drug-related AE elevated lactate dehydrogenase ([1]; human, in vivo): 44.0%
- drug-related AE elevated α-hydroxybutyrate dehydrogenase ([1]; human, in vivo): 24.0%
- drug-related AE hyperuricemia ([1]; human, in vivo): 20.0%
- drug-related AE leukopenia ([1]; human, in vivo): 44.0%
- drug-related AE neutropenia ([1]; human, in vivo): 68.0%
- drug-related AE thrombocytopenia ([1]; human, in vivo): 20.0%
- drug-related AE ≥ grade III hyperuricemia ([1]; human, in vivo): 12.0%
- drug-related AE ≥ grade III leukopenia ([1]; human, in vivo): 8.0%
- drug-related AE ≥ grade III lymphocythemia ([1]; human, in vivo): 8.0%
- drug-related AE ≥ grade III neutropenia ([1]; human, in vivo): 44.0%
- drug-related AE ≥ grade III pneumonia ([1]; human, in vivo): 16.0%
- drug-related AE ≥ grade III pneumonitis ([1]; human, in vivo): 8.0%
- grade IV hyperuricemia ([1]; human, in vivo): 3 cases
- grade IV neutropenia ([1]; human, in vivo): 4
- grade V AEs ([1]; human, in vivo): no grade V AEs occurred
- incidence of diarrhea, colitis, and hepatotoxicities ([1]; human, in vivo): very low
- number of ≥ grade III AEs ([1]; human, in vivo): 32
- patients who experienced SAEs ([1]; human, in vivo): 52.0%
- patients who experienced drug-related AEs (so in the source) ([1]; human, in vivo): 36.0%
- patients with ≥ 1 AE ([1]; human, in vivo): 25 patients
- longest treatment duration ([2]; 40 mg, CLL/SLL patient): 36 months
- median PFS time, follicular lymphoma ([2]; 10 FL patients): 300 days
- DCR, follicular lymphoma [2, 4]: 90%
- ORR, follicular lymphoma [2, 4]: 90%
- overall ORR ([2]; 25 evaluable patients, 16/25, 95% CI 45.2, 82.8%): 64.0%
- disease control rate (DCR) ([2]; 25 evaluable patients, 18/25, 95% CI 54.4, 89.6%): 72.0%
- median PFS time ([2]; all evaluable patients combined): 255 days
- CR, follicular lymphoma ([2]; number of FL patients, 80 mg): 3
- PD, follicular lymphoma ([2]; number of FL patients, 200 mg): 1
- PR, follicular lymphoma ([2]; number of FL patients, 1/40 mg and 5/80 mg): 6
- complete remission (CR) [2, 5]: 5
- partial remission (PR) [2, 5]: 11
- progressive disease (PD) [2, 5]: 7
- durable response ([2]; one PR patient with CLL/SLL, 40 mg q.d.): around 36 months
